This note sets out measurements from patent US6525017B1, “Using glutathiane to protect neurons from injury” (The Children's Medical Center Corporation, priority 1989, dated 2003).

Common to all, as to type: cell-based
Assay [1] relates to NMDA receptor. As to the kind of experiment: Whole-cell patch-clamp NMDA responses in cultured rat cortical neurons. On the procedure:
The effects of reduction and oxidation on the NMDA response were further examined in cultured mammalian central neurons with the use of patch electrodes. Experiments were performed on neurons in primary cultures of CD rat neocortex derived from embryonic day 16 fetuses and plated onto glass coverslips coated with collagen and poly-L-lysine. The growth medium consisted of a v/v mixture of 80% DMEM (Sigma D5530), 10% F-12 (Sigma), 10% heat-inactivated, iron-supplemented serum (Hyclone), with 25 mM HEPES, 24 U/ml penicillin, and 24 μg/ml streptomycin, supplemented to 2 mM glutamine. Recordings were performed on 3- to 13-week-old cultures, and neurons studied ranged from 12 to 18 μm in diameter. The extracellular solution for the physiological experiments contained 137 mM NaCl, 1 mM NaHCO3, 0.34 mM NaHPO4, 5.36 mM KCl, 0.44 mM KH2PO4, 2.5 mM CaCl2, 5 mM HEPES-NaOH, 22.2 mM dextrose, 0.001% (v/v) phenol red, adjusted to pH 7.2 with 0.3 N NaOH (no added magnesium, except where noted). Tetrodotoxin (TTX) (1 μM) was routinely added to reduce synaptic activity. The intracellular (pipette) solution contained 120 mM CsCl, 20 mM TEA-Cl, 2 mM MgCl2, 1 mM CaCl2, 1.5-2.25 mM EGTA, and 10 mM HEPES-NAOH, adjusted to pH 7.2 with concentrated TEA-OH. Electrophysiological measurements were performed at 33° C.-35° C. with patch electrodes (4-8 MΩ), essentially as described in Lipton et al. J. Physiol 385:361, 1987. Lipton et al. 1987 includes the following disclosure of electrophysiological recordings by patch clamp from solitary neurons:
“. . . patch-clamp recordings were made . . . following the methods of Hamill et al. (1981) using an EPC-7 amplifier (List Electronic, Darmstadt, F.R.G.). Patch electrodes had resistances of 3-5 MΩ when filled with Na^+ or K^+ saline. Patch electrodes were used to record whole-cell currents under voltage clamp as well as single-channel currents from patches of membrane excised from the cell. The indifferent electrode was a Ag-AgCl wire connected to the culture dish via an agarose bridge. Holding and command potentials (VH and Vc, respectively (were generated by a digital-to-analog converter (Cheshire Data, Hamden, Conn., U.S.A.) interfaced with a PDP 11/23 or 11/73 computer (Digital Equipment Corp., Maynard, Mass., U.S.A.). Data collection was also controlled by the computer; data were sampled and digitized with a 12-bit, 125 kHz analog-to-digital converter (Data Translation, Marlboro, Mass., U.S.A., Model DT2782DMA) and viewed on a Hewlett-Packard digital display (Model 1345A). The sampling rate was set at 10 μs to 50 ms depending on the level of analysis. Using the amplifier test circuit, the digitized data were accurate to within 1%. The signals were low-pass filtered at a setting appropriate to the sampling frequency (Ithaco, Ithaca, N.Y., U.S.A., Model 4302 with a Bessel frequency cut-off characteristic of 48 dB/octave). Leakage currents and liquid junction potentials were corrected as described in Fenwick, Marty & Neher [J. Physiol. 331:577-597] (1982a). Using the EPC-7 circuit, analog compensation of the series resistance was applied. This ensured a relatively small error due to the voltage drop across the series resistance (less than or equal to that calculated by Marty & Neher, 1985 [J. Physiol. 367:117-141]). Data were stored on a 30 megabyte Winchester disk (Data Systems Design, San Jose, Calif., U.S.A., Model 880). […]

In assay [2] the test system is NMDA receptor. As to the kind of experiment: Whole-cell NMDA responses in isolated rat retinal ganglion cells. The method, then:
The third central neuronal preparation in which the effects of oxidation and reduction on NMDA responses were tested was the isolated rat retinal ganglion cell. Postnatal retinal ganglion cells were identified and cultured as described in Lipton et al., supra. Physiological solutions and experimental protocol were the same as described for cortical neurons (Example 2), except that TTX was excluded from the extracellular fluid, since whole-cell recordings were performed on neurons that were solitary and had no apparent connections to other cells and no spontaneous action potentials.
These cells have well-characterized, albeit small, NMDA responses. Treatment with 2 mM DTT (1-3 min) produced potentiation of the response elicited by 200 μM NMDA and 1 μM glycine (250%±130% of control; range, 220%-320%). […] Glycine (1 μM) potentiation of NMDA (200 μM) responses occurred in both the reduced and the oxidized states. […] The effects of reduction and oxidation could be repeated in alternating fashion in these cells for as long as the recording remained stable.

Assay [3] deals with nicotinic receptor. As to the kind of experiment: Nicotinic receptor function in intact chick retina. The method, then: Eyecups were obtained from 2-to 5-day-old chicks and continuously superfused at 20-25° C. at a rate of 8 ml/min with Tyrodes solution (130 mM NaCl, 3 mM KCl, 17 mM dextrose, 20 mM NaHCO3, 0.01% w/v phenol red; bubbled with a gas mixture of 95% O2 and 5% CO2) containing 5 mM MgCl2 to reduce synaptic activity. […] Traces were triggered by the opening of two solenoid valves that shunted approximately 200 μl of agonist (1, 1-dimethyl-4-phenyl-piperazinium iodide, DMPP or NMDA) into the perfusion line, Agonists reached the preparation approximately 7s later. The resulting responses originated, at least in part, in the retinal ganglion cells. Some experiments were performed in the presence of 10 μg/ml catalase and 1 μg/ml superoxide dismutase. Antagonists, reducing agents, or oxidizing agents were introduced directly via the perfusate.
The action of DTT lasted for tens of minutes after the reducing agent was removed; any small decrement in the potentiation could be reversed with additional DTT treatment. The function of the nicotinic receptors was restored upon oxidation with 0.1-1.0 mM DTNB (applied for 5 min). […] The reduction and oxidation effects could be alternated repeatedly for as long as the preparation remained stable, which was often more than 9 hr.

On to `O[C@@H](CS)[C@@H](O)CS` [DTT, dithothreitol], for which the “voltage-clamped NMDA response, % of control (potentiation)” value in assay [1] (10-100 μM NMDA + 1 μM glycine, 1-5 min treatment with 0.5-2.0 mM DTT, mean ± spread) is listed as 250%±140%. Also, the “voltage-clamped NMDA response, % of control, range” value in assay [1] (10-100 μM NMDA + 1 μM glycine, 1-5 min treatment with 0.5-2.0 mM DTT, range) is given as 220%-330%. The “NMDA response on reapplication of DTT after oxidation” value in assay [1] (after DTNB oxidation) is “always restored the NMDA response to greater than control levels”. The “NMDA response, % of control (potentiation)” value in assay [2] (200 μM NMDA + 1 μM glycine, 2 mM DTT 1-3 min, mean ± spread) is 250%±130%. In addition, in assay [2] (200 μM NMDA + 1 μM glycine, 2 mM DTT 1-3 min, range), the “NMDA response, % of control, range” value was 220%-320%. Further, the “nicotinic receptor function after reduction” value in assay [3] (DTT 1-2 mM applied for 10-25 min) was “blocks nicotinic receptor function”.

Turning to `O=C(O)c1cc(SSc2ccc([N+](=O)[O-])c(C(=O)O)c2)ccc1[N+](=O)[O-]` [DTNB, 5′-5′-dithiobis-2-nitrobenzoic acid], the “decrease of NMDA response” value in assay [1] (1-3 min treatment with 0.1-1.0 mM DTNB, mean ± spread) is listed as 22.9%±12.9%. In addition, the “decrease of NMDA response, range” value in assay [1] (1-3 min treatment with 0.1-1.0 mM DTNB, range) is 0%-39.5%. The “decrement of the native NMDA response” value in assay [2] (0.1-0.2 mM DTNB, mean ± spread) is listed as 49.4%±9.4%. The “decrement of the native NMDA response, range” value in assay [2] (0.1-0.2 mM DTNB, range) was 37%-60%. In addition, in assay [3] (0.1-1.0 mM DTNB applied for 5 min, after DTT), the “nicotinic receptor function upon oxidation” value is listed as “restored”.
